Assay results published in patent US20100311718A1, “Treatment of Psychoses with Dibenzothiazepine Antipsychotic” (AstraZeneca AB, priority 2004, published 2010).
Counter-ions that a name gives are not always drawn. Like-named read-outs stand apart in the source and are kept apart here. Marks after values point to notes of the source that are not given here. One block for each compound: values may come before it.

Assays:
[1] = system: patients with bipolar depression; settings: monotherapeutic agent; cited from earlier work
[2] = system: patients with bipolar depression; settings: 8 week trial; difference not statistically significant; cited from earlier work
[3] = system: patients with bipolar depression; settings: 7-week trial, patients who completed the study; cited from earlier work
[4] = system: patients with bipolar depression
Excerpt: Criteria for Emergent Mania (any one of the following): AE (Adverse Event) or SAE
(Serious Adverse Event) of Mania. Withdrawal for AE of mania. YMRS (Young Mania Rating Scale) ≧16 on 2 consecutive or final assessment.

[5] = system: patients with bipolar depression; settings: for Change in MADRS, Mean (SD): Bipolar I
Excerpt: (§1) The treatment was with quetiapine or placebo. There were 43% male and 57% female patients. The demographics also included 67% bipolar I and 33% bipolar II.

[6] = system: patients with bipolar depression; remark: listed apart in the source
Excerpt: as §1

[7] = system: patients with bipolar depression; remark: listed apart in the source
Excerpt: as §1

[8] = system: patients with bipolar depression; remark: listed apart in the source
Excerpt: as §1

[9] = system: patients with bipolar depression; settings: for Improvement in mean HAM-A score: endpoint (Week 8), P<0.05 vs placebo
Excerpt: as §1

[10] = system: patients with bipolar depression; settings: both doses, p<0.001
[11] = system: patients with bipolar depression; remark: listed apart in the source
Excerpt: as §1

[12] = treatment of bipolar depression
[13] = OC (completer) population, 300 mg/day
[14] = OC (completer) population, 600 mg/day

Structure (SMILES): O=C([O-])[O-].[Li+].[Li+] [Lithium carbonate]
- Patients with bipolar depression in whom monotherapy is effective [1]: approximately 50%

Structure (SMILES): CCCC(CCC)C(=O)O [divalproex]
- Percentage of patients with a 50% reduction in HAM-D scores without mania [2]: numerical improvement over placebo

Structure (SMILES): Nc1nnc(-c2cccc(Cl)c2Cl)c(N)n1 [lamotrigine]
- HAM-D and MADRS scores [3]: produced improvement in HAM-D and MADRS scores

- Treatment-emergent mania, number of patients ([4]; 300 mg): 6
- Treatment-emergent mania, percent of patients ([4]; 300 mg): 3.5%
- Treatment-emergent mania, number of patients ([4]; 600 mg): 4
- Treatment-emergent mania, percent of patients ([4]; 600 mg): 2.4%
- Changes in weight ([11]; in vivo): Small dose related changes in weight
Structure (SMILES): OCCOCCN1CCN(C2=Nc3ccccc3Sc3ccccc32)CC1 [quetiapine, 2-[2-(4-dibenzo [b,f] 1,4]thiazepin-11-yl-1-piperazinyl)ethoxy]-ethanol fumarate]
- Association with treatment-emergent mania (switching) [4, 12]: not associated with treatment-emergent mania
- MADRS effect size ([5]; Bipolar I & II): 0.6
- Change in MADRS, Mean (SD) ([5]; ITT population, 300 mg/day): −17.1 (9.7)
- Change in MADRS, Mean (SD) ([5]; ITT population, 600 mg/day): −18.2 (11.0)
- MADRS Change ([5]; ITT population, 300 mg/day): −16.5
- MADRS Change ([5]; ITT population, 600 mg/day): −16.8
- MADRS Change [5, 13]: −18.6
- MADRS Change [5, 14]: −20.3
- Efficacy against depressive symptoms (MADRS and HAM-D) ([5]; both doses, p<0.001): Efficacy against depressive symptoms in both doses from Day 8 on
- Advantage over placebo, MADRS Responder analysis ([5]; in vivo): 20%
- Advantage over placebo, remission analysis ([5]; in vivo): 20%
- HAM-D Change ([6]; ITT population, 300 mg/day): −13.4
- HAM-D Change ([6]; ITT population, 600 mg/day): −13.9
- HAM-D Change [6, 13]: −15.0
- HAM-D Change [6, 14]: −17.0
- Q-LES-Q change (Δ), Mean (SD) ([7]; Week 4, 300 mg): 8.6 (9.6)^a
- Q-LES-Q change (Δ), Mean (SD) ([7]; Week 4, 600 mg): 11.0 (10.7)*
- Q-LES-Q change (Δ), Mean (SD) ([7]; Week 8, 300 mg): 11.7 (10.4)^a
- Q-LES-Q change (Δ), Mean (SD) ([7]; Week 8, 600 mg): 16.3 (10.3)*
- Q-LES-Q change (Δ), Mean (SD) ([7]; Week 8 LOCF, 600 mg): 12.2 (11.6)*
- PSQI change (Δ), Mean (SD) ([8]; Week 4, 300 mg): −4.7 (4.2)*
- PSQI change (Δ), Mean (SD) ([8]; Week 4, 600 mg): −5.3 (4.9)*
- PSQI change (Δ), Mean (SD) ([8]; Week 8, 300 mg): −5.3 (4.3)*
- PSQI change (Δ), Mean (SD) ([8]; Week 8, 600 mg): −6.4 (4.3)*
- PSQI change (Δ), Mean (SD) ([8]; Week 8 LOCF, 300 mg): −5.1 (4.3)*
- Sleep component: Sleep disturbance, Mean (SD) ([8]; Week 8 LOCF, 300 mg): 1.1 (0.6)
- Sleep component: Sleep duration, Mean (SD) ([8]; Week 8 LOCF, 300 mg): 0.7 (0.8)
- Sleep component: Sleep dysfunction, Mean (SD) ([8]; Week 8 LOCF, 300 mg): 1.3 (0.9)
- Sleep component: Sleep latency, Mean (SD) ([8]; Week 8 LOCF, 300 mg): 1.3 (1.0)
- Sleep component: Sleep medication, Mean (SD) ([8]; Week 8 LOCF, 300 mg): 0.4 (0.9)
- Sleep component: Sleep quality, Mean (SD) ([8]; Week 8 LOCF, 300 mg): 1.0 (0.8)
- PSQI change (Δ), Mean (SD) ([8]; Week 8 LOCF, 600 mg): −5.5 (4.8)*
- Sleep component: Sleep disturbance, Mean (SD) ([8]; Week 8 LOCF, 600 mg): 1.2 (0.7)
- Sleep component: Sleep duration, Mean (SD) ([8]; Week 8 LOCF, 600 mg): 0.5 (0.8)
- Sleep component: Sleep dysfunction, Mean (SD) ([8]; Week 8 LOCF, 600 mg): 1.4 (0.9)
- Sleep component: Sleep latency, Mean (SD) ([8]; Week 8 LOCF, 600 mg): 1.3 (1.1)
- Sleep component: Sleep medication, Mean (SD) ([8]; Week 8 LOCF, 600 mg): 0.4 (0.9)
- Sleep component: Sleep quality, Mean (SD) ([8]; Week 8 LOCF, 600 mg): 0.8 (0.8)
- Improvement in mean HAM-A score ([9]; about 300 mg/day): −8.6
- Improvement in mean HAM-A score ([9]; about 600 mg/day): −8.7
- Efficacy in anxiety symptoms (HAM-A) ([9]; both doses, p<0.01): Efficacy in anxiety symptoms (HAM-A) in both doses from Day 8 on
- Clinical Improvement (CGI) [10]: Clinical Improvement (CGI) in both doses from Day 8 on
- Adverse event trends ([11]; in vivo): No unexpected AE trends
- Tolerability [11, 12]: well-tolerated in the treatment of bipolar depression with a low incidence of EPS (extrapyramidal symptoms), prolactin, sexual dysfunction and weight gain
